# Experimental data taken from US20260364072A1, “METHODS FOR PROMOTING EXPANSION OF HUMAN CD34+ CELLS IN VIVO AND FOR PROMOTING NEURAL REGENERATION” (THE REGENTS OF THE UNIVERSITY OF CALIFORNIA, priority 2023, published 2026).
# Assays:
# [1] = tested on: human CD34+ cells; test: Aged normal bone marrow CD34+ engrafted NSG-SGM3 mice, flow cytometry of PB, SP, BM; type: in vivo, human cells in NSG-SGM3 mice; conditions: 10 mg/kg, intravenously, twice a week for 2 weeks
# From the text: Here, we established humanized mouse models using CD34^+ stem cells isolated from the peripheral blood of adult secondary AML (sAML) patients or bone marrow of normal-aged donors (63-79 years old).
# FIG. 1: Rebecsinib treatment promotes human CD34^+ cells and spares CD45^+ cells Aged normal bone marrow (BM) samples were provided by Scripps Clinic La Jolla, CA. Normal human CD34^+ cells were freshly isolated with Microbeads (Miltenyi Biotech) and subsequently transduced with the ADAR1-NanoLuc reporter for 48 hours. Adult NSG-SGM3 mice (4-6 weeks) were intravenously transplanted with 100K ADAR1-NanoLuc reporter transduced CD34^+ cells. The mice were screened using the IVIS 200 imaging system and staining of peripheral blood with human CD45 monoclonal antibody. Mice with human CD45^+ cells >1% were included in the treatment cohort receiving Rebecsinib at a dose of 10 mg/kg, intravenously, twice a week for 2 weeks, with a total of 5 doses. After treatment, mice were sacrificed, and single cells were obtained from peripheral blood (PB), bone marrow (BM), and spleen (SP) for further analysis. A. IVIS 200 images of NSG-SGM3 mice intravenously transplanted with ADAR1-NanoLuc reporter transduced normal human CD34^+ cells at 18 weeks after transplantation. B. Flow cytometry gating strategies showing positive and negative controls. C.
# [2] = tested on: human CD45+ADAR1-GFP+ cells and CD45+CD3+ADAR1-GFP+ cells; test: aNBM SAK148 PDX mice, flow cytometry; type: in vivo, human cells in NSG-SGM3 mice; conditions: 10 mg/kg, IV, BIW×2
# Method: Aged normal bone marrow (aNBM) PDX mouse models SAK148, which were established with 80-100K ADAR1-reporter transduced CD34+ cells by IV injection into NSG-SGM3 mice at the age of 5-6 weeks. When the models were ready, the mice were treated with either vehicle or rebecsinib (10 mg/kg, IV, BIW×2). The mice were sacrificed upon completion of the dosing plan, and single cells from PB, SP, and BM were collected and stained with mAbs for CD45, CD3, CD14, and CD19.
# [3] = tested on: sAML LSC; test: Serial transplantation assays of sAML LSC; type: in vivo, human cells in mice
# Method: To test this, we performed serial transplantation assays of cells harvested from sAML50261 LSC engrafted mice that were treated intravenously twice weekly for two weeks with Rebecsinib at 10 mg/kg (serial transplant recipients received no further treatment). […] Thus, reductions in ADAR1p150-mediated RNA editing activity following Rebecsinib treatment correspond with a reversion to a healthy splice isoform expression profile^14 in engrafted human progenitors.
# (§1) In humanized mouse models, sAML cells (CD34^+) from two unique […] patient samples that were splicing factor mutated or unmutated were utilized, including sAML50261 and sAML2008-5.^14 For in vivo efficacy and therapeutic index studies, sAML CD34^+ cells, or normal human cord blood-derived or aged bone marrow-derived HSPCs (CD34^+), were transplanted (50,000-200,000 cells per mouse) intrahepatically into neonatal Rag2^−/−γc^−/− mice, or intravenously into adult NSG-SGM3 mice (Jackson Laboratories, Bar Harbor, ME). A subset of experiments was performed with normal aged bone marrow cells that were transduced with the lentiviral ADAR1 nanoluc-GFP reporter vector prior to transplant. For transplantation into adult mice, animals were irradiated with ^137Cs at a dose of 150 cGy 24 hr before IV transplantation. After engraftment levels reached >1% human CD45^+ hematopoietic cells in the peripheral blood, animals were distributed among treatment groups for treatment with Rebecsinib or vehicle control essentially as previously described, with an increased dosing regimen of twice weekly (versus once weekly in prior studies)^14 and an optimized in vivo formulation (2% w/w EtOH, 5% w/v KOLLIPHOR HS™ 15 in 0.9% saline). For animals that received transplants of cells transduced with the lentiviral ADAR1 nanoluc-GFP reporter, mice were imaged 15 weeks after transplant on the IVIS 200, as previously described.^79 Following treatment with Rebecsinib (five intravenous doses total over a two-week period), hematopoietic tissues (peripheral blood, bone marrow, spleens) were collected and analyzed by flow cytometry as previously described.^14 For splice isoform-specific qRT-PCR or RNA-seq analyses on cells from in vivo studies, human CD34^+ LSC from bone marrows and spleens of engrafted mice were isolated by magnetic bead separation (Miltenyi Biotec).
# Additional aliquots of CD34+ cells from bone marrow and/or spleens of treated and control animals were used for serial transplantation assays after Rebecsinib treatment, including engraftment studies and overall survival assays. In a separate cohort of animals, mice were treated with Fedratinib for two weeks (twice daily oral delivery at 60 mg/kg) as a positive control for modulation of ADAR1 expression and activity.^8
# [4] = tested on: normal HSPCs; test: Normal cord blood HSPC engrafted mice; type: in vivo, human cells in Rag2-/-γc-/- mice
# Method: To determine the sensitivity of normal HSPCs to Rebecsinib, human cord blood-derived CD34+ cells were transplanted into Rag2^−/−γc^−/− mice. After human cell engraftment was established (6 to 12 weeks), mice were treated with Rebecsinib twice-weekly for two weeks at doses equivalent to the maximum doses selected for in vivo LSC assays. The frequency of CD45^+ hematopoietic cells in bone marrow, peripheral blood, spleen, and thymus were unchanged between vehicle and Rebecsinib-treated groups that received a dose of 10 mg/kg. […] Thus, a dose of 10 mg/kg in mice is sufficient to reduce in vivo sAML LSC burden while sparing normal HSPC development.
# as §1
smiles,measurement,setting,value
CC[C@H](OC)[C@@H](C)[C@H]1O[C@@H]1[C@@H](O)[C@H](C)/C=C/C=C(\C)[C@H]1OC(=O)C[C@H](O)CC[C@@](C)(O)[C@@H](OC(C)=O)/C=C/[C@@H]1C [Rebecsinib],"human CD45+ cells and differentiated cells (CD14+, CD3+, CD19+)",[1],"preserves human CD45^+ cells and differentiated cells, including CD14^+ myeloid cells, and lymphoid cells such as CD3^+ T and CD19^+ B cells"
same,human CD34+ cells in BM,"[1]; bone marrow, p=0.046, Student's t-test",significant CD34^+ increase
same,human CD34+ cells in PB,[1]; peripheral blood,increased levels of human CD34^+ cells
same,human CD34+ cells in SP,[1]; spleen,increased levels of human CD34^+ cells
same,"CD45+CD3+GFP+ cells in PB, SP, and BM",[2],spares the cell populations
same,"CD45+GFP+ cells in PB, SP, and BM",[2],spares the cell populations
same,ADAR-208 expression after serial transplantation compared with ADAR1p110,"[3]; CD34+ cells from serial transplant recipients, RNA-seq",sustained reductions in expression
same,frequency of hematopoietic progenitors (CD34+CD38+Lin-) in spleens of serial transplant recipients,"[3]; sAML50261, 10 mg/kg intravenously twice weekly for two weeks (primary mice)",reduced frequency of hematopoietic progenitors
same,LSC self-renewal on serial transplantation,[3]; splicing factor mutated sAML (2008-5),significantly reduced LSC self-renewal
same,overall survival of serial transplant recipients,[3]; splicing factor unmutated sAML 50261,significant improvement in overall survival
same,"frequency of CD45+ hematopoietic cells in bone marrow, peripheral blood, spleen, and thymus","[4]; 10 mg/kg, twice-weekly for two weeks",unchanged
same,human CD19+ cells in peripheral blood,[4]; 20 mg/kg,reduction
same,human CD45+ and CD19+ cells in bone marrow or spleen,[4]; 20 mg/kg,not in the bone marrow or spleen
same,human CD45+ cells in peripheral blood,[4]; 20 mg/kg,reduction
same,systemic toxicity,[4]; 2 weeks of dosing at 10 or 20 mg/kg,no evidence of Rebecsinib-related systemic toxicity
same,"CD19+ B cells in bone marrow, peripheral blood, or spleen",[4]; vs vehicle,no significant reduction
same,human CD3+ T cells in thymus or peripheral blood,[4]; vs vehicle,no significant reduction
